Legend:
[1] = system: patients with cancer-related psychiatric and existential distress; experiment: Beck Depression Inventory-II (BDI-II), long-term follow-up; type: in vivo, human; settings: single 0.3 mg/kg dose with psychotherapy, baseline 14.19
Method: (§1) The present example assesses the long-term effects of a single dose of psilocybin (0.3 mg/kg) in conjunction with psychotherapy in patients with cancer-related psychiatric and existential distress.
(§2) 29 participants were randomly assigned to one of two groups: psilocybin (0.3 mg/kg) on the first medication session followed by niacin (250 mg) on the second session (i.e. psilocybin-first group), or niacin (250 mg) on the first medication session followed by psilocybin (0.3 mg/kg) on the second session (i.e. niacin-first group). Psilocybin and niacin were administered in identically appearing gelatin capsules.
Participants received three 2-hour preparatory psychotherapy sessions in order to review the purpose and intention of participation in the study, treatment goals, and structure of the treatment sessions. Medications were administered in 8-hour treatment sessions which included a discussion of the participant's subjective experience with the treatment team to consolidate the memory of the experience and to begin the process of post-integrative psychotherapy. Participants also received three 2-hour post-medication integration sessions (repeated after the second dosing session) to further consolidate the memory of the experience and to continue the process of psychological integration. All psychotherapy treatment sessions were delivered by a dyadic therapy team trained in a blend of psychotherapies with an evidence base to support their use in cancer patients (drawing upon principles of palliative care therapy, existential psychotherapy, cognitive-behavioural therapy, psychoanalysis therapy, and transpersonal psychology) and were taught about the safety and clinical pharmacology of psilocybin. […]
Primary outcomes (anxiety and depression) were measured according to the following methods: • Hospital Anxiety and Depression Scale (HADS) (Zigmond and Snaith, 1983)—this is widely used in hospital settings to screen for the severity of anxiety and depression. […] Subscale scores can be calculated for depression (HADS-D) and anxiety (HADS-A). […]

[2] = system: patients with cancer-related psychiatric and existential distress; experiment: Lasting negative or adverse effects reported during long-term follow-up; type: in vivo, human; settings: LTFU period; 13 of 14 participants provided information
Method: as §2
Participants received three 2-hour preparatory psychotherapy sessions in order to review the purpose and intention of participation in the study, treatment goals, and structure of the treatment sessions. Medications were administered in 8-hour treatment sessions which included a discussion of the participant's subjective experience with the treatment team to consolidate the memory of the experience and to begin the process of post-integrative psychotherapy. Participants also received three 2-hour post-medication integration sessions (repeated after the second dosing session) to further consolidate the memory of the experience and to continue the process of psychological integration. […]

[3] = system: patients with advanced-stage cancer; settings: single moderate dose 0.2 mg/kg; cited from earlier work
[4] = system: patients with cancer-related psychiatric and existential distress; experiment: Primary outcome measures (anxiety and depression) combined: effect sizes, clinical response and remission rates; type: in vivo, human
Method: as §1, §2
(§3) Participants received three 2-hour preparatory psychotherapy sessions in order to review the purpose and intention of participation in the study, treatment goals, and structure of the treatment sessions. Medications were administered in 8-hour treatment sessions which included a discussion of the participant's subjective experience with the treatment team to consolidate the memory of the experience and to begin the process of post-integrative psychotherapy. Participants also received three 2-hour post-medication integration sessions (repeated after the second dosing session) to further consolidate the memory of the experience and to continue the process of psychological integration. All psychotherapy treatment sessions were delivered by a dyadic therapy team trained in a blend of psychotherapies with an evidence base to support their use in cancer patients (drawing upon principles of palliative care therapy, existential psychotherapy, cognitive-behavioural therapy, psychoanalysis therapy, and transpersonal psychology) and were taught about the safety and clinical pharmacology of psilocybin. Each therapy dyad underwent six confidential one-to-one sessions to build their alliance and exchange ideas about psychedelic therapy. The trial employed a crossover design at seven weeks following the first drug administration, with an outcome assessment at 6.5 months (26 weeks) following the second drug administration (i.e. after the crossover).
(§4) Two long-term follow ups (LTFUs) were carried out to assess the continued effect of psilocybin. Of the original 29 participants, all 16 participants who were not deceased at the time of LTFU were contacted (the remaining 13 participants were deceased). Of the 16 participants who were contacted, 15 agreed to participate in the LTFU and completed measures through a secure online portal. One participant died (from cancer-related complications) after completing the first LTFU and prior to the second LTFU, leaving us with 14 participants at the second LTFU. The first and second LTFUs occurred on average 3.2 years (range 2.3-4.5 years) and 4.5 years (range 3.5-5.5 years) following the participants' psilocybin dosing date, respectively.
Primary outcomes (anxiety and depression) were measured according to the following methods: • Hospital Anxiety and Depression Scale (HADS) (Zigmond and Snaith, 1983)—this is widely used in hospital settings to screen for the severity of anxiety and depression. It contains 14 questions rated on a four-point scale (total score (HAD-T) ranges from […]). Subscale scores can be calculated for depression (HADS-D) and anxiety (HADS-A). […] The HADS has shown good reliability (Cronbach's a ranging from 0.80-0.93) and has been well validated (Herrmann, 1997). • Beck Depression Inventory-II (BDI-II) (Beck et al., 1988)—a widely used self-report screening measure for depression. The BDI-II consists of 21 questions about depressive symptoms experienced over the past two weeks rated on a […] scale (total score ranges from 0-63). Scores above 12 indicate possible clinical depression. This measure has shown good reliability (internal consistency of 0.90) and factorial validity (Storch et al. 2004). • Spielberger State-Trait Anxiety Inventory (STAI) (Spielberger, 1983)—a well-known measure of anxiety consisting of scales for state (STAI-S) and trait-level anxiety (STAI-T). […]

[5] = system: patients with cancer-related psychiatric and existential distress; experiment: Functional Assessment of Chronic Illness Therapy-Spiritual Well-Being (FACIT-Sp-12), long-term follow-up; type: in vivo, human; settings: for Faith / Meaning/peace / Spiritual well-being: single 0.3 mg/kg dose with psychotherapy; for Faith: baseline 6.75; for Meaning/peace: baseline 19.43; for Spiritual well-being: baseline 55.69
Method: as §1, §2, §3, §4
Spirituality was assessed using the Functional Assessment of Chronic Illness Therapy-Spiritual Well-Being (FACIT-Sp-12; Bredle et al., 2011). This is a 12-item measure of spiritual well-being among individuals with cancer and other forms of chronic illness. Items are rated on a five-point Likert scale. The measure yields three subscales: a sense of meaning/peace in life, a sense of comfort from one's faith, and total spiritual well-being score. Total scores for each subscale range from 0-32, 0-16, and 0-48, respectively. Data have not been published regarding recommended cutoff scores for this measure. This measure has shown good reliability (Cronbach's a ranging from 0.81-0.88) and has been well validated (Bredle et al. 2011).
Regarding all analyses for both the primary and secondary outcome assessments, both the psilocybin-first and niacin-first dose sequence groups were collapsed and combined into one group. Reasons for this decision included the crossover design, which prevented valid between-group comparisons subsequent to the crossover, and a need to increase power given the modest sample size. […]

[6] = system: patients with cancer-related psychiatric and existential distress; experiment: Spielberger State-Trait Anxiety Inventory (STAI), long-term follow-up; type: in vivo, human; settings: single 0.3 mg/kg dose with psychotherapy; for STAI State Anxiety: baseline 43.94; for STAI Trait Anxiety: baseline 47.81
Method: as §1, §2, §3, §4
Primary outcomes (anxiety and depression) were measured according to the following methods: • Hospital Anxiety and Depression Scale (HADS) (Zigmond and Snaith, 1983)—this is widely used in hospital settings to screen for the severity of anxiety and depression. It contains 14 questions rated on a four-point scale (total score (HAD-T) ranges from 0-56). Subscale scores can be calculated for depression (HADS-D) and anxiety (HADS-A). […] The HADS has shown good reliability (Cronbach's a ranging from 0.80-0.93) and has been well validated (Herrmann, 1997). • Beck Depression Inventory-II (BDI-II) (Beck et al., 1988)—a widely used self-report screening measure for depression. […]

[7] = mean score at 3.2 years, p < 0.01 vs baseline
[8] = mean score at 6.5-8 months, p < 0.001 vs baseline
[9] = second LTFU point (mean 4.5 years)
[10] = mean score at 4.5 years, p < 0.01 vs baseline
[11] = mean score at 4.5 years, p < 0.05 vs baseline

CN(C)CCc1c[nH]c2cccc(OP(=O)(O)O)c12 [psilocybin, [3-(2-dimethylaminoethyl)-1H-indol-4-yl] dihydrogen phosphate]
Beck Depression [1, 7]: 7.75 | Beck Depression ([1]; mean score at 4.5 years, p < 0.001 vs baseline): 5.45 | Beck Depression [1, 8]: 5.09 | lasting negative or adverse effects from the psilocybin-assisted therapy experiences [2]: None of the participants reported lasting negative or adverse effects | adverse events [3]: no clinically significant adverse events | time after treatment up to which levels of anxiety were reduced [3]: up to 3 months | time after treatment up to which levels of depression were reduced [3]: up to 6 months | participants meeting criteria for clinical antidepressant or anxiolytic response and remission ([4]; 4.5 year time point): 60-80% | mean Cohen's d, reductions in symptoms since baseline on primary measures (anxiety and depression) ([4]; 6.5-month point): 1.90 | range of Cohen's d, primary measures (anxiety and depression) ([4]; 6.5-month point): 1.27-2.67 | participants meeting criteria for clinical antidepressant or anxiolytic response and remission ([4]; 6.5 months after psilocybin administration): 60-80% | mean Cohen's d, reductions in symptoms since baseline on primary measures (anxiety and depression) ([4]; first LTFU (mean 3.2 years)): 1.30 | range of Cohen's d, primary measures (anxiety and depression) ([4]; first LTFU (mean 3.2 years)): 0.93-1.97 | depression symptom remission rates ([4]; second LTFU (4.5 years, n=14), 50% or greater reduction plus HADS-D≤7 or BDI≤12): 50-79% | percentages of clinical responses for depression on the HADS-D and BDI ([4]; second LTFU (4.5 years, n=14), 50% or greater reduction relative to baseline): 57-79% | mean Cohen's d, reductions in symptoms since baseline on primary measures (anxiety and depression) [4, 9]: 1.41 | range of Cohen's d, primary measures (anxiety and depression) [4, 9]: 0.86-1.89 | Faith ([5]; mean score at 3.2 years, p < 0.05 vs baseline): 9.31 | Meaning/peace ([5]; mean score at 3.2 years): 19.27 | Spiritual well-being ([5]; mean score at 3.2 years): 59.85 | Faith [5, 10]: 10.43 | Meaning/peace ([5]; mean score at 4.5 years): 20.20 | Spiritual well-being [5, 11]: 65.04 | Faith ([5]; mean score at 6.5-8 months, p < 0.01 vs baseline): 9.77 | Meaning/peace [5, 8]: 26.34 | Spiritual well-being [5, 8]: 70.58 | spiritual well-being and faith domains (FACIT-Sp-12) relative to baseline ([5]; second LTFU): significant improvements | STAI State Anxiety [6, 7]: 33.00 | STAI State Anxiety [6, 11]: 34.41 | STAI Trait Anxiety [6, 10]: 35.78 | STAI State Anxiety [6, 8]: 29.84 | STAI Trait Anxiety [6, 8]: 28.23

— patent publication US20220151993A1, “TREATMENT OF ANXIETY AND DEPRESSION” (NEW YORK UNIVERSITY, priority 2020, published 2022)
